{
  "source": "patent US20180113119A1",
  "about": "“METHODS FOR CHARACTERIZING TIME-BASED HEPATOTOXICITY” (HUREL CORPORATION, priority 2015, published 2018)",
  "key": {"[1]": {"system": "human hepatocytes"}, "[2]": {"settings": "known profile of reference compound; cited from earlier work"}, "[3]": {"system": "hepatocyte-stromal cell cocultures comprising rat primary hepatocytes", "protocol": "(§1) Cell viability was analyzed using a CellTiter-Blue (Promega) assay, n=4.\n(§2) These are concentration dependent toxicity curves generated after 6 days of repeat compound exposure in the 4 different species. Each compound was dosed every 2 days starting on day 0. On the 6th day the Promega Celltiter blue assay was used to measure the conversion of resazurin to the fluorescent resorufin.\n(§3) Cryopreserved human hepatocytes were obtained from Thermo Fisher (formerly Life Technologies Corporation). Cryopreserved non-human primate (cynomolgus monkey) hepatocytes were obtained from Thermo Fisher (formerly Life Technologies Corporation). Cryopreserved dog hepatocytes were obtained from IVT Bioreclamation. Cryopreserved rat hepatocytes were obtained from Thermo Fisher (formerly Life Technologies Corporation). The cryopreserved hepatocytes were removed from liquid nitrogen and thawed. After thawing, cells were re-suspended in medium and cell number and cell viability was determined using trypan blue exclusion. Stromal cells were passed in a CO2 incubator until used for experimental plating. On plating day cells were detached from the plate, washed, and re-suspended in medium. Cell number and viability were determined using trypan blue exclusion.\n(§4) The stromal cells were growth arrested prior to seeding.\n(§5) The graphs in FIGS. 11-13 present concentration dependent toxicity curves generated after 6 days of repeat compound exposure in human, dog, primate, and rat. Each compound was dosed every two days for treatment periods of two days, four days, and six days across a full range of concentrations. On the sixth day a Promega Celltiter blue assay was used to measure mitochondrial metabolic activity. That data was then used to generate a TC50 value. […] In FIG. 11 cyclophosphamide was administered every two days for treatment periods of two days, four days, and six days across a full range of concentrations."}, "[4]": {"system": "hepatocyte-stromal cell cocultures comprising dog primary hepatocytes", "protocol": "as §1, §2, §3, §4, §5"}, "[5]": {"system": "hepatocyte-stromal cell cocultures comprising human primary hepatocytes", "protocol": "as §1, §2, §3, §4, §5"}, "[6]": {"system": "hepatocyte-stromal cell cocultures comprising primate primary hepatocytes", "protocol": "as §1, §2, §3, §4, §5"}},
  "note": "Where two headings read alike, the source gives them in different places.",
  "data": [
    {"compound": "COc1ccccc1Oc1c(NS(=O)(=O)c2ccc(C(C)(C)C)cc2)nc(-c2ncccn2)nc1OCCO", "note": "[bosentan]", "values": [
      {"measurement": "LC50 (TC50) at 24 hours", "setting": "[1]", "result": 757, "unit": "µM"},
      {"measurement": "known in vivo hepatotoxicity", "setting": "[2]", "result": "strong in vivo hepatotoxicity"}
    ]},
    {"compound": "CC(C)NCC(O)COc1cccc2ccccc12", "note": "(stereo not shown) [propranolol]", "values": [
      {"measurement": "known in vivo hepatotoxicity", "setting": "[2]", "result": "lack of hepatotoxicity"}
    ]},
    {"compound": "Cc1c(C)c2c(c(C)c1O)CCC(C)(COc1ccc(CC3SC(=O)NC3=O)cc1)O2", "note": "(stereo not shown) [Troglitazone]", "values": [
      {"measurement": "LC50 (TC50)", "setting": "[3]; rat, 6 days", "result": 317, "unit": "µM"},
      {"measurement": "LC50 (TC50)", "setting": "[4]; dog, 6 days", "result": 267, "unit": "µM"},
      {"measurement": "LC50 (TC50)", "setting": "[5]; human, 6 days", "result": 308, "unit": "µM"},
      {"measurement": "LC50 (TC50)", "setting": "[6]; cynomolgus monkey, 6 days", "result": 207, "unit": "µM"}
    ]},
    {"compound": "CN(C)CCCN1c2ccccc2Sc2ccc(Cl)cc21", "note": "[chlorpromazine]", "values": [
      {"measurement": "LC50 (TC50) at 24 hours", "setting": "[1]", "result": 21, "unit": "µM"}
    ]},
    {"compound": "O=P1(N(CCCl)CCCl)NCCCO1", "note": "(stereo not shown) [Cyclophosphamide]", "values": [
      {"measurement": "LC50 (TC50)", "setting": "[3]; Rat, 6 days of repeat exposure, dosed every 2 days, Celltiter blue", "result": "1,506 μM"},
      {"measurement": "effect of multiple dosing on cytotoxicity (cell viability)", "setting": "[3]; rat, treatment periods of two, four and six days, CellTiter-Blue, n=4", "result": "extending the duration of dosing increases the cyclophosphamide cytotoxicity"},
      {"measurement": "LC50 (TC50)", "setting": "[4]; Dog, 6 days of repeat exposure, dosed every 2 days, Celltiter blue", "result": "7,541 μM"},
      {"measurement": "effect of multiple dosing on cytotoxicity (cell viability)", "setting": "[4]; dog, treatment periods of two, four and six days, CellTiter-Blue, n=4", "result": "extending the duration of dosing increases the cyclophosphamide cytotoxicity"},
      {"measurement": "LC50 (TC50)", "setting": "[5]; Human, 6 days of repeat exposure, dosed every 2 days, Celltiter blue", "result": "5,523 μM"},
      {"measurement": "effect of multiple dosing on cytotoxicity (cell viability)", "setting": "[5]; human, treatment periods of two, four and six days, CellTiter-Blue, n=4", "result": "extending the duration of dosing increases the cyclophosphamide cytotoxicity"},
      {"measurement": "LC50 (TC50)", "setting": "[6]; Monkey, 6 days of repeat exposure, dosed every 2 days, Celltiter blue", "result": "1,904 μM"},
      {"measurement": "effect of multiple dosing on cytotoxicity (cell viability)", "setting": "[6]; primate, treatment periods of two, four and six days, CellTiter-Blue, n=4", "result": "extending the duration of dosing increases the cyclophosphamide cytotoxicity"}
    ]}
  ]
}
